From PubChem BioAssay AID1845201 (Molecular Pharmacology Branch, DTP, NCI, 2023)

Tested on: COR L88 complex tumor spheroid viability
Assay: Anticancer human tumor COR L88 cell line growth inhibition;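 further: compound exposure lasted 7 days before viability readout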;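 on viability, T/C: percent of DMSO vehicle-treated spheroids = 100%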
Conditions: for IC50: curve of first compound; for viability, T/C: stronger effect = lower value
Outline: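 Complex tumor spheroids combined malignant cells with endothelial cells and mesenchymal stem cells. DNA-damaging drugs and DNA repair inhibitors were tested alone and in combination, at half-log dilutions down from clinical Cmax (top 10 microM if Cmax unknown), 0.25% DMSO final.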

Structure (SMILES): CC(C)n1c(=O)n(C)c2cnc3cc(F)c(-c4ccc(OCCCN5CCCCC5)nc4)cc3c21 + Cn1nnc2c(C(N)=O)ncn2c1=O
- IC50 (second compound 1 µM): > 10 µM
- IC50 (second compound 3.16 µM): > 10 µM
- IC50 (second compound 10 µM): > 10 µM
- IC50 (second compound 31.6 µM): 6.87 µM
- IC50 (second compound 100 µM): 5.06 µM
- viability, T/C (second compound 1 µM, first compound 0.0316 µM): 104%
- viability, T/C (second compound 1 µM, first compound 0.1 µM): 97.7%
- viability, T/C (second compound 1 µM, first compound 0.316 µM): 98.9%
- viability, T/C (second compound 1 µM, first compound 1 µM): 94.5%
- viability, T/C (second compound 1 µM, first compound 3.16 µM): 80.7%
- viability, T/C (second compound 1 µM, first compound 10 µM): 52.8%
- viability, T/C (second compound 3.16 µM, first compound 0.0316 µM): 96.2%
- viability, T/C (second compound 3.16 µM, first compound 0.1 µM): 105%
- viability, T/C (second compound 3.16 µM, first compound 0.316 µM): 98.2%
- viability, T/C (second compound 3.16 µM, first compound 1 µM): 95.4%
- viability, T/C (second compound 3.16 µM, first compound 3.16 µM): 80%
- viability, T/C (second compound 3.16 µM, first compound 10 µM): 54.6%
- viability, T/C (second compound 10 µM, first compound 0.0316 µM): 96.2%
- viability, T/C (second compound 10 µM, first compound 0.1 µM): 91.6%
- viability, T/C (second compound 10 µM, first compound 0.316 µM): 94.5%
- viability, T/C (second compound 10 µM, first compound 1 µM): 91.2%
- viability, T/C (second compound 10 µM, first compound 3.16 µM): 76.1%
- viability, T/C (second compound 10 µM, first compound 10 µM): 50.8%
- viability, T/C (second compound 31.6 µM, first compound 0.0316 µM): 87.1%
- viability, T/C (second compound 31.6 µM, first compound 0.1 µM): 84.8%
- viability, T/C (second compound 31.6 µM, first compound 0.316 µM): 87.5%
- viability, T/C (second compound 31.6 µM, first compound 1 µM): 80.9%
- viability, T/C (second compound 31.6 µM, first compound 3.16 µM): 67.4%
- viability, T/C (second compound 31.6 µM, first compound 10 µM): 41.2%
- viability, T/C (second compound 100 µM, first compound 0.0316 µM): 72.5%
- viability, T/C (second compound 100 µM, first compound 0.1 µM): 69%
- viability, T/C (second compound 100 µM, first compound 0.316 µM): 74%
- viability, T/C (second compound 100 µM, first compound 1 µM): 76%
- viability, T/C (second compound 100 µM, first compound 3.16 µM): 56.9%
- viability, T/C (second compound 100 µM, first compound 10 µM): 40.1%
